Laboratory results from BindingDB's records for PubMed 35442672 (Fudan University, 2022).

Target: T1, Dual specificity mitogen-activated protein kinase kinase 3 (Homo sapiens, UniProt P46734)
T1 sequence (P46734 whole entry): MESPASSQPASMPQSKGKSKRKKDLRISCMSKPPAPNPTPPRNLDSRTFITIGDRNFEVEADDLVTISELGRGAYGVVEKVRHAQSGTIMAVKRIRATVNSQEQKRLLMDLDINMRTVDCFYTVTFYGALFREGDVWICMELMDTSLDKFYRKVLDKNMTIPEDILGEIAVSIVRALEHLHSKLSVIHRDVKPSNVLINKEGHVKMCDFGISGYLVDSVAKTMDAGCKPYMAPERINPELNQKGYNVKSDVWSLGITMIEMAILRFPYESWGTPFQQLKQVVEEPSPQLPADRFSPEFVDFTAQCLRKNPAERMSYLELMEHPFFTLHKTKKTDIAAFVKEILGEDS
Test: Binding affinity to CM5 chip immobilized human MKK3 (20 to 347 residues) expressed in Escherichia coli BL21 (DE3) assessed as dissociation constant, Kd by surface plasmon resonance analysis

- koff: 0.00361 s⁻¹
SMILES: COc1ccc([C@H]2CC(=O)c3cc(OC)cc(OC)c32)cc1
